Test results as given in US20240207410A1, “STABILIZED LIQUID COMPOSITIONS COMPRISING A LEVODOPA-TYROSINE CONJUGATE AND USES THEREOF” (NeuroDerm, Ltd., priority 2021, published 2024).
In brackets after ≈: the same amount, converted by molar mass. Where a SMILES comes first, the peptide text is derived from it. [ ]: non-standard residue; d: D form. pY = N[C@@H](Cc1ccc(OP(=O)(O)O)cc1)C(=O)O; Dopa = N[C@@H](Cc1ccc(O)c(O)c1)C(=O)O

Tests used:
Format in all cases: physicochemical
[1] = Long-term stability of 30% LD-Tyrosine/0.75% carbidopa at 2-8° C.
Protocol: The formulation also included 0.5% ascorbic acid (Asc), 0.5% N-acetyl cysteine (NAC) and 0.3% Tween 80. The formulation was stored at 2-8° C. for the time indicated, and % recovery and % LD-Tyr-DKP formation (an impurity) were tested. Percent recovery remained high over time. The DKP impurity accumulated over time.

[2] = Evaluation of solution stability, pH 7.4, 60° C.; details: phosphate buffer pH 7.4, about 1 mg/mL, after about 1 day
Protocol: A phosphate buffer solution at pH 7.4 was added to each of the compounds to dissolve the each of the compounds, and when necessary, a NaOH solution was added to adjust the pH of the mixture to prepare a solution of about 1 mg/mL. After storing this solution at 60° C. for about 1 day, HPLC purity (area percentage, %) was measured. The HPLC purity of the solution immediately after the preparation, or the HPLC purity of the compound, was subtracted from the HPLC purity after storage at 60° C. for about 1 day to obtain a HPLC purity difference.

[3] = Evaluation of solubility in water; details: for pH of filtrate: filtrate of the solubility test; for solubility at 24 h: thermodynamic from solid, water, shaken at 25° C. for 24 hours
Protocol: Water was added to each of the compounds to prepare a suspension, which was shaken at 25° C. for 24 hours, and then, filtration through a filter was performed to obtain a filtrate. A compound concentration in the filtrate was quantified using HPLC to obtain the solubility. Further, the pH of the filtrate was measured.

[4] = Evaluation of solution stability, pH 7.4, 25° C.; details: for HPLC purity difference: phosphate buffer pH 7.4, about 1 mg/mL, 25° C.
Protocol: A phosphate buffer solution at pH 7.4 was added to each of the compounds to dissolve the each of the compounds, and when necessary, a NaOH solution was added to adjust the pH of the mixture to prepare a solution of about 1 mg/mL. After storing this solution at 25° C. for about 1 day, HPLC purity (area percentage, %) was measured. The HPLC purity of the solution immediately after the preparation, or the HPLC purity of the compound, was subtracted from the HPLC purity after storage at 25° C. for about 1 day to obtain a HPLC purity difference. […] In Tables 9-1 and 9-2, “LDP-Ala” represents L-Tyrosine,N-L-alanyl-3-hydroxy-(9CI) and has the following structural formula: […]

Structure (SMILES)	HPLC purity difference [2]	pH of filtrate [3]	solubility at 24 h [3]	stability in aqueous solutions near neutrality [4]	HPLC purity difference ([4]; after about 1 day)	further results
C[C@@](Cc1ccc(O)c(O)c1)(NN)C(=O)O [Carbidopa, carbidopa, reference compound]	–	–	–	–	–	mg/mL (concentration in formulation) ([1]; 1 month): 7.32 mg/mL; mg/mL (concentration in formulation) ([1]; 1 week): 7.36 mg/mL; mg/mL (concentration in formulation) ([1]; 2 months): 7.32 mg/mL; mg/mL (concentration in formulation) ([1]; 2 weeks): 7.30 mg/mL; mg/mL (concentration in formulation) ([1]; 3 months): 7.35 mg/mL; mg/mL (concentration in formulation) ([1]; t = 0): 7.37 mg/mL
C[C@H](N)C(=O)N[C@@H](Cc1ccc(OP(=O)(O)O)c(O)c1)C(=O)O [Example 1, (2S)-2-[[(2S)-2-aminopropanoyl]amino]-3-(3-hydroxy-4-phosphonooxyphenyl) propanoic acid]	−1.61%	2.6	15.6 mg/mL (≈ 44.8 mM)	stable	−0.03%	–
N[C@@H](Cc1ccc(O)c(O)c1)C(=O)N[C@@H](Cc1ccc(OP(=O)(O)O)c(O)c1)C(=O)O [Example 2, (2S)-2-[[(2S)-2-amino-3-(3,4-dihydroxyphenyl)propanoyl]amino]-3-(3-hydroxy-4-phosphonooxyphenyl) propanoic acid]	–	2.6	> 31.1 mg/mL	–	−3.53%	–
NCCCC[C@H](N)C(=O)N[C@@H](Cc1ccc(OP(=O)(O)O)c(O)c1)C(=O)O [Example 8, (2S)-2-[[(2S)-2,6-diaminohexanoyl]amino]-3-(3-hydroxy-4-phosphonooxyphenyl) propanoic acid]	–	–	–	stable	–	HPLC purity difference ([4]; after 1.9 days): 0.25 (after 1.9 days) %
N[C@@H](Cc1ccc(OP(=O)(O)O)cc1)C(=O)N[C@@H](Cc1ccc(O)c(O)c1)C(=O)O [Example 10, (2S)-2-[[(2S)-2-amino-3-(4-phosphonooxyphenyl)propanoyl]amino]-3-(3,4-dihydroxyphenyl) propanoic acid] (H-[pY]-[Dopa]-OH)	–	–	–	–	−0.67%	–
C[C@H](N)C(=O)N[C@@H](Cc1ccc(O)c(O)c1)C(=O)O [LDP-Ala, L-Tyrosine,N-L-alanyl-3-hydroxy-(9CI), reference compound] (H-Ala-[Dopa]-OH)	−25.00%	–	–	–	−3.80%	–
